Columns and labels:
[1] = Human Regulatory T Cell Differentiation Assay; assay type: cell-based; details: human, primary naïve CD4+ T cells isolated from PBMCs, read-out: Cell viability % DMSO
Protocol: (§1) Peripheral blood mononuclear cells (PBMCs) from whole blood donated by health volunteers were separated by Ficoll-Paque gradient centrifugation and naïve CD4^+ T cells were subsequently isolated using magnet beads (EasySep™ Human Naïve CD4^+ T Cell Isolation Kit, Cambridge, Mass.). For regulatory T cell (Treg) differentiation assay, naïve CD4^+ T cells were cultured (1-10×10^4 cells) in CTS OpTmizer medium for 6 days and stimulated with 5 ng/ml TGF-β, 100 U/ml IL-2, and ImmunoCult™ Human […] T Cell Activator; Stemcell #10990) with/without Compounds. Cell viability was determined using a viability dye (eBioscience Fixable Viability Dye eFluor 780: ThermoFisher 65-0865-14) at 1:500 dilution. The cells were gated for Treg, defined as Live, CD11c^−, CD14^−, CD19^−, CD8^−, CD4^+, CD3^+, CD25^+, FOXP3^+. Percent (%) Tregs were calculated as percentage of CD4^+, CD25^+, FOXP3^+ cells over total CD4^+ T cells. Statistical analysis was performed with GraphPad Prism Software Using One-Way ANOVA.

[2] = Stability in Simulated Gastric Fluid (SGF); assay type: in vitro ADME; details: SGF pH 1.6 with pepsin, 1 μM, 37° C.
Protocol: Stability of acylated active agents in Simulated Gastric Fluid (SGF). This assay was used to assess the stability of an acylated active agent in a stomach.
Medium was prepared by dissolving 2 g of sodium chloride in 0.6 L in ultrapure water (MilliQ®, Millipore Sigma, Darmstadt, Germany). The pH was adjusted to 1.6 with 1N hydrochloric acid, and the volume was then adjusted to 1 L with purified water.
60 mg FaSSIF powder (Biorelevant™, London, UK) were dissolved in 500 mL buffer (above). Pepsin was added (0.1 mg/mL) (Millipore Sigma, Darmstadt, Germany), and the solution was stirred. The resulting SGF media were used fresh for each experiment.
Test compounds were dissolved in DMSO stock to 1 mM. An aliquot of the DMSO stock solution was removed and diluted in the SGF Media in 15 mL falcon tubes to generate a total compound concentration of 1 μM. A 1 mL aliquot was immediately removed and diluted once with 1 volume of acetonitrile for T0 timepoint. The mixture was sealed and mixed at 37° C. in an incubator. Aliquots (1 mL) were removed at regular intervals and immediately quenched by the addition of 1 volume of acetonitrile. The resulting samples were analyzed by LC/MS to determine degradation rates

[3] = Stability in Simulated Intestinal Fluid (SIF); assay type: in vitro ADME; details: for Assay 2 (SIF) (% @ Remaining 4 hours): SIF pH 6.7 with pancreatin, 1 μM, 37° C.; for selective delivery to the upper intestine: conclusion drawn from Table 1 (SGF and SIF stability)
Protocol: SIF Stability of acylated active agents in Simulated Intestinal Fluid (SIF). This assay was used to assess the stability of an acylated active agent in a small intestine.
Phosphate buffer was prepared by dissolving 0.42 g of sodium hydroxide pellets and 3.95 g of monobasic sodium phosphate monohydrate and 6.19 g of sodium chloride in ultrapure water (MilliQ®, Millipore Sigma, Darmstadt, Germany). The pH was adjusted to 6.7 using aq. HCl and aq. NaOH, as necessary, and the solution was diluted with ultrapure water to produce 1 L of the pH 6.7 buffer.
112 mg FaSSIF powder (Biorelevant™, London, UK) was dissolved in 50 mL of the pH 6.7 buffer. 2 to 3 mL of the resulting solution were then added to 500 mg pancreatin (Millipore Sigma, Darmstadt, Germany). The resulting mixture was agitated by finger tapping the vessel containing the mixture until milky suspension formed. At this time, the remainder of the 50 mL FaSSiF/pH 6.7 buffer solution was added. The resulting suspension was flipped upside down 10 times to produce SIF, which was used fresh.
Test compounds were dissolved in DMSO stock to 1 mM. An aliquot of the DMSO stock solution was removed and diluted in the SIF media in 15 mL falcon tubes to produce a mixture with a tested compound concentration of 1 μM. A 1 mL aliquot was immediately removed and diluted once with 1 volume of acetonitrile for T0 timepoint. The mixture was sealed and agitated at 37° C. in an incubator. Aliquots (1 mL) were removed at regular intervals and immediately quenched by the addition of 1 volume of acetonitrile. The resulting samples were analyzed by LC/MS to determine degradation rates.

naïve CD4^+ T cells = assay: Human Regulatory T Cell Differentiation Assay; assay type: cell-based; details: 6 days
Protocol: as §1

Row | Structure (SMILES) | Assay 1 (SGF) (% Remaining @ 1 hours) [2] | Assay 2 (SIF) (% @ Remaining 4 hours) [3] | selective delivery to the upper intestine [3] | also measured
1 | CC(=O)O [Acetic acid] |  |  |  | viability at 6 days, 1 mM ([1]; 1 mM): 90 to 110%; viability at 6 days, 3 mM [1]: 90 to 110%
2 | O=c1c(O)c(-c2ccc(O)c(O)c2)oc2cc(O)cc(O)c12 [Quercetin] |  |  |  | viability at 6 days, 0.1 µM ([1]; 100 nM): 90 to 110%; viability at 6 days, 1 µM ([1]; 1 uM): 90 to 110%
3 | CN(CCOc1ccc(CC2SC(=O)NC2=O)cc1)c1ccccn1 (stereo not shown) [Rosiglitazone] |  |  |  | viability at 6 days, 10 µM ([1]; 10 uM): 90 to 110%; viability at 6 days, 100 µM [1]: < 90%
4 | CCC(=O)Oc1cc(O)c2c(=O)cc(-c3ccc(OC(=O)CC)c(OC(=O)CC)c3)oc2c1 [Compound 12, 4-(5-hydroxy-4-oxo-7-(propionyloxy)-4H-chromen-2-yl)-1,2-phenylene dipropionate] | C (>75% of the tested compound remaining) | A (<25% of the tested compound remaining) | can be selectively delivered to the upper intestine | 
5 | CC(=O)OCC[C@@H](C)OC(=O)Oc1ccc(/C=C/c2cc(OC(=O)O[C@H](C)CCOC(C)=O)cc(OC(=O)O[C@H](C)CCOC(C)=O)c2)cc1 [Compound 33, [(3R)-3-[4-[(E)-2-[3,5-bis[[(1R)-3-acetoxy-1-methyl-propoxy]carbonyloxy]phenyl]vinyl]phenoxy]carbonyloxybutyl] acetate] | C (>75% of the tested compound remaining) | A (<25% of the tested compound remaining) | can be selectively delivered to the upper intestine | 
6 | CCC(=O)OCC[C@@H](C)OC(=O)Oc1ccc(/C=C/c2cc(OC(=O)O[C@H](C)CCOC(=O)CC)cc(OC(=O)O[C@H](C)CCOC(=O)CC)c2)cc1 [Compound 27, [(3R)-3-[4-[(E)-2-[3,5-bis[[(1R)-1-methyl-3-propanoyloxy-propoxy]carbonyloxy]phenyl]vinyl]phenoxy]carbonyloxybutyl] propanoate] | C (>75% of the tested compound remaining) | A (<25% of the tested compound remaining) | can be selectively delivered to the upper intestine | 
7 | CC(O)CC(=O)[O-].[Na+] (stereo not shown) [Sodium BHB] |  |  |  | Cell viability % DMSO (naïve CD4^+ T cells; 2 mM): = (90% ≥ ≤110%: =); Treg induction % DMSO (naïve CD4^+ T cells; 2 mM): + (110% > ≤130%: +); Cell viability % DMSO (naïve CD4^+ T cells; 20 mM): − (<90%: −); Treg induction % DMSO (naïve CD4^+ T cells; 20 mM): = (90% ≥ ≤110%: =)
8 | CCC(=O)Oc1cc(OC(=O)CC)c2c(=O)c(OC(=O)CC)c(-c3cc(OC(=O)CC)c(OC(=O)CC)c(OC(=O)CC)c3)oc2c1 [Compound 13, [4-oxo-3,5-di(propanoyloxy)-2-[3,4,5-tri(propanoyloxy)phenyl]chromen-7-yl] propanoate] | C (>75% of the tested compound remaining) | A (<25% of the tested compound remaining) | can be selectively delivered to the upper intestine | 
9 | CCCC(=O)O [Butyric Acid] |  |  |  | viability at 6 days, 3 mM [1]: < 90%
10 | CC[C@H]1[C@@H](O)[C@@H]2[C@H](CC[C@]3(C)[C@@H]([C@H](C)CCC(=O)O)CC[C@@H]23)[C@@]2(C)CC[C@@H](O)C[C@@H]12 [Obeticholic acid] |  |  |  | viability at 6 days, 100 µM [1]: 90 to 110%
11 | CCC(=O)O[C@H](C)CCOC(=O)Oc1ccc(/C=C/c2cc(OC(=O)OCC[C@@H](C)OC(=O)CC)cc(OC(=O)OCC[C@@H](C)OC(=O)CC)c2)cc1 [Compound 28, (2R,2′R)-((((5-(E)-4-((((R)-3-(propionyloxy)butoxy)carbonyl)oxy)styryl)-1,3-phenylene)bis(oxy))bis(carbonyl))bis(oxy))bis(butane-4,2-diyl) dipropionate] | B (25-75% of the tested compound remaining) | A (<25% of the tested compound remaining) |  | 
12 | C[C@@H](O)CCO [(R)-1,3-Butanediol] |  |  |  | viability at 6 days, 100 µM [1]: 90 to 110%; viability at 6 days, 0.5 mM ([1]; 0.5 mM): 90 to 110%
13 | CCC(=O)Oc1ccc2c(c1)oc(=O)c1cc(OC(=O)CC)c(OC(=O)CC)cc12 [Compound 18, [6-oxo-8,9-di(propanoyloxy)benzo[c]chromen-3-yl] propanoate] | C (>75% of the tested compound remaining) | A (<25% of the tested compound remaining) | can be selectively delivered to the upper intestine | 

Source: patent US20210085640A1, “ACYLATED CATECHIN POLYPHENOLS AND METHODS OF THEIR USE FOR THE TREATMENT OF CANCER” (Flagship Pioneering Innovations V, Inc., priority 2018, published 2021)
